Reference: patent publication US12391692B2, “Spiro ring-containing quinazoline compound” (WIGEN BIOMEDICINE TECHNOLOGY (SHANGHAI) CO., LTD., priority 2020, dated 2025)

Assays:
[1] = test system: human pancreatic cancer Mia PaCa-2 xenograft tumors; assay: Antitumor activity in mice, Mia PaCa-2 xenograft; format: in vivo; details: Mia PaCa-2 xenograft in nude mice; for Anti-tumor effect (regression): 10 mg/kg, qd*21, intragastric; for in vivo activity compared with control drug B: 10 mg/kg/day, 21 days
Protocol: Human pancreatic cancer Mia PaCa-2 cells were cultured conventionally in 1640 medium containing 10% fetal bovine serum in a 37° C./5% CO2 incubator. After being subcultured, the cells were collected when they reached the desired amount. 1×10^7 Mia PaCa-2 cells were injected into the left dorsal side of each nude mouse, and the animals were randomly grouped for administration after tumors grew to 150 mm^3. The groups were as follows: 1) solvent control group, 8 mice; 2) compound 6 group, compound 14 group, compound 28 group, compound 44 group, compound 60 group, compound 103 group and control drug B (Example 35 in WO2018/143315), 8 mice in each group. The mice in the solvent control group was intragastrically administered with 0.5% CMC-Na once a day; and the mice in the compound groups were intragastrically administered with 0.5% CMC-Na suspension once a day. On Tuesday and Thursday each week, tumor volumes and body weight of the mice were measured, and the nude mice were sacrificed on day 21 during the treatment period.

pERK level in H358 cells = assay: pERK and ERK protein content assay in H358 cells (ELISA); format: cell-based; details: Homo sapiens, NCI-H358, pERK/ERK ratio vs DMSO group, compound 1 μM, 24 h, read-out: Inhibition rate (%)
Procedure, shortened: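 H358 cells grown one day, then treated 24 h with compound at 1 μM. pERK and ERK in lysates measured by ELISA; pERK/ERK ratio expressed as percent inhibition versus DMSO.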

H358 cells = assay: Antiproliferative activity against H358 cells (Cell Titer Glow, ultra-low attachment plate); format: cell-based; details: Homo sapiens, NCI-H358, 72 h, three days after addition of compound
Protocol: 2500 H358 cells were seeded in a 96-well ultra-low attachment plate (corning, 7007). After one day of growth, a serially diluted compound (a maximum concentration of 5 μM, 5-fold dilution, a total of five doses) was added. Three days after the addition of the compound, Cell Titer Glow (Promega, G9681) was added to evaluate pellet growth, and the IC50 value was calculated.

IC50 (H358 cells) [nM] | SMILES | Anti-tumor effect (regression) [1] [% regression] | in vivo activity compared with control drug B [1] | inhibition at 1 µM (pERK level in H358 cells) [%]
< 300 | C=CC(=O)N1CC2(CCN(c3nc(N4CC(C)(N5CCC5)C4)nc4c(OCC(F)(F)F)c(-c5c(C)ccc6[nH]ncc56)c(C5CC5)cc34)CC2)C1 [Compound 60] | 30 | stronger in vivo activity than the control drug B | > 90
< 300 | C=CC(=O)N1CC2(CCN(c3nc(N4CC(CN5CCC5)C4)nc4c(OCC(F)(F)F)c(-c5c(C)ccc6[nH]ncc56)c(C5CC5)cc34)CC2)C1 [Compound 6] | 35 | stronger in vivo activity than the control drug B | > 90
< 300 | C=CC(=O)N1CC2(CCN(c3nc(N4CC(N5CC6(CC6)C5)C4)nc4c(OCC(F)(F)F)c(-c5c(C)ccc6[nH]ncc56)c(C5CC5)cc34)CC2)C1 [Compound 28] | 42 | stronger in vivo activity than the control drug B | > 90
< 300 | C=CC(=O)N1CC2(CCN(c3nc(N4CC(N(CC)CCCO)C4)nc4c(OCC(F)(F)F)c(-c5c(C)ccc6[nH]ncc56)c(C5CC5)cc34)CC2)C1 [Compound 24] | – | – | > 90
< 300 | C=CC(=O)N1CC2(CCN(c3nc(N4CC(N5CC6(CSC6)C5)C4)nc4c(OCC(F)(F)F)c(-c5c(C)ccc6[nH]ncc56)c(C5CC5)cc34)CC2)C1 [Compound 31] | – | – | > 90
< 300 | C=CC(=O)N1CC2(CCN(c3nc(N4CC(C)(CN5CCC5)C4)nc4c(OCC(F)(F)F)c(-c5c(C)ccc6[nH]ncc56)c(C5CC5)cc34)CC2)C1 [Compound 63] | – | – | > 90
< 300 | C=CC(=O)N1CC2(CCN(c3nc(N4CC(OC5CN(C)C5)C4)nc4c(OCC(F)(F)F)c(-c5c(C)ccc6[nH]ncc56)c(C5CC5)cc34)CC2)C1 [Compound 14] | 37 | stronger in vivo activity than the control drug B | > 90
< 300 | C=CC(=O)N1CC2(CCN(c3nc(N4CC5(CC(O)CN5C)C4)nc4c(OCC(F)(F)F)c(-c5c(C)ccc6[nH]ncc56)c(C5CC5)cc34)CC2)C1 (stereo not shown) [Compound 121] | – | – | > 90
< 300 | C=CC(=O)N1CC2(CCN(c3nc(N4CC5(CCN5C5CCC5)C4)nc4c(OCC(F)(F)F)c(-c5c(C)ccc6[nH]ncc56)c(C5CC5)cc34)CC2)C1 [Compound 70] | – | – | > 90
< 300 | C=CC(=O)N1CC2(CCN(c3nc(N4CCC(CC#N)(N5CCC5)CC4)nc4c(OCC(F)(F)F)c(-c5c(C)ccc6[nH]ncc56)c(C5CC5)cc34)CC2)C1 [Compound 58] | – | – | > 90
< 300 | C=CC(=O)N1CC2(CCN(c3nc(N4CC5(CCN5CCOC)C4)nc4c(OCC(F)(F)F)c(-c5c(C)ccc6[nH]ncc56)c(C5CC5)cc34)CC2)C1 [Compound 72] | – | – | > 90
< 300 | C=CC(=O)N1CC2(CCN(c3nc(N4CC(CC#N)(N(C)C)C4)nc4c(OCC(F)(F)F)c(-c5c(C)ccc6[nH]ncc56)c(C5CC5)cc34)CC2)C1 [Compound 51] | – | – | > 90
< 300 | C=CC(=O)N1CC2(CCN(c3nc(N4CC5(CC(O)CN5CC)C4)nc4c(OCC(F)(F)F)c(-c5c(C)ccc6[nH]ncc56)c(C5CC5)cc34)CC2)C1 (stereo not shown) [Compound 122] | – | – | > 90
< 300 | C=CC(=O)N1CC2(CCN(c3nc(N4CC(C)(CN5CCCC5)C4)nc4c(OCC(F)(F)F)c(-c5c(C)ccc6[nH]ncc56)c(C5CC5)cc34)CC2)C1 [Compound 64] | – | – | > 90
< 300 | C=CC(=O)N1CC2(CCN(c3nc(N4CC(CC#N)(N5CCC5)C4)nc4c(OCC(F)(F)F)c(-c5c(C)ccc6[nH]ncc56)c(C5CC5)cc34)CC2)C1 [Compound 54] | – | – | > 90

Continued, compound first:

SMILES | IC50 (H358 cells) [nM] | Anti-tumor effect (regression) [1] [% regression] | in vivo activity compared with control drug B [1] | inhibition at 1 µM (pERK level in H358 cells) [%]
C=CC(=O)N1CC2(CCN(c3nc(N4CC(N5CC6(CC6)C5)C4)nc4c(OCC(F)(F)F)c(-c5c(F)ccc6[nH]ncc56)c(C5CC5)cc34)CC2)C1 [Compound 103] | < 300 | 39 | stronger in vivo activity than the control drug B | > 90
C=CC(=O)N1CC2(CCN(c3nc(N4CC(N5CC(O)C5)C4)nc4c(OCC(F)(F)F)c(-c5c(C)ccc6[nH]ncc56)c(C5CC5)cc34)CC2)C1 [Compound 44] | < 300 | 23 | – | > 90
C=CC(=O)N1CC2(CCN(c3nc(N4CC(N5CC6(CC6)C5)C4)nc4c(OCC(F)(F)F)c(-c5c(F)ccc6[nH]cnc56)c(C5CC5)cc34)CC2)C1 [Compound 108] | < 300 | – | – | > 90
C=CC(=O)N1CC2(CCN(c3nc(N4CC(n5cccn5)C4)nc4c(OCC(F)(F)F)c(-c5c(C)ccc6[nH]ncc56)c(C5CC5)cc34)CC2)C1 [Compound 40] | > 1000 | – | – | 50 to 90
C=CC(=O)N1CC2(CCN(c3nc(N4CC(N5CC[C@H](O)C5)C4)nc4c(OCC(F)(F)F)c(-c5c(C)ccc6[nH]ncc56)c(C5CC5)cc34)CC2)C1 [Compound 45] | < 300 | – | – | > 90
C=CC(=O)N1CC2(CCN(c3nc(N4CC(n5cncn5)C4)nc4c(OCC(F)(F)F)c(-c5c(C)ccc6[nH]ncc56)c(C5CC5)cc34)CC2)C1 [Compound 42] | > 1000 | – | – | 50 to 90
C=CC(=O)N1CC2(CCN(c3nc(N4CC(N5CC6(CC6)C5)C4)nc4c(OCC(F)(F)F)c(-c5c(F)cccc5F)c(C5CC5)cc34)CC2)C1 [Compound 113] | 300 to 1000 | – | – | 50 to 90
C=CC(=O)N1CC2(CCN(c3nc(N4CCC(OC5CN(C)C5)CC4)nc4c(OCC(F)(F)F)c(-c5c(C)ccc6[nH]ncc56)c(C5CC5)cc34)CC2)C1 [Compound 16] | < 300 | – | – | > 90
C=CC(=O)N1CC2(CCN(c3nc(N4CC(N5CC6(CC6)C5)C4)nc4c(OCC(F)(F)F)c(-c5cc(O)cc6ccccc56)c(C5CC5)cc34)CC2)C1 [Compound 111] | 300 to 1000 | – | – | > 90
C=CC(=O)N1CC2(CCN(c3nc(N4CC(OC5CCC5)C4)nc4c(OCC(F)(F)F)c(-c5c(C)ccc6[nH]ncc56)c(C5CC5)cc34)CC2)C1 [Compound 13] | < 300 | – | – | > 90
C=CC(=O)N1CC2(CCN(c3nc(N4CC(CN5CCCC5)C4)nc4c(OCC(F)(F)F)c(-c5c(C)ccc6[nH]ncc56)c(C5CC5)cc34)CC2)C1 [Compound 7] | < 300 | – | – | > 90
C=CC(=O)N1CC2(CCN(c3nc(O[C@H]4C[C@@H](N5CCCC5)C4)nc4c(OCC(F)(F)F)c(-c5c(C)ccc6[nH]ncc56)c(C5CC5)cc34)CC2)C1 [Compound 89] | < 300 | – | – | > 90
C=CC(=O)N1CC2(CCN(c3nc(N4CC(N5CCSCC5)C4)nc4c(OCC(F)(F)F)c(-c5c(C)ccc6[nH]ncc56)c(C5CC5)cc34)CC2)C1 [Compound 25] | 300 to 1000 | – | – | > 90
C=CC(=O)N1CC2(CCN(c3nc(N4CC(N5CC6(CC6)C5)C4)nc4c(OCC(F)(F)F)c(-c5c(F)ccc6cn[nH]c56)c(C5CC5)cc34)CC2)C1 [Compound 110] | < 300 | – | – | > 90
C=CC(=O)N1CC2(CCN(c3nc(O[C@H]4C[C@@H](N5CCC(F)(F)C5)C4)nc4c(OCC(F)(F)F)c(-c5c(C)ccc6[nH]ncc56)c(C5CC5)cc34)CC2)C1 [Compound 91] | < 300 | – | – | > 90
C=CC(=O)N1CC2(CCN(c3nc(O[C@H]4C[C@@H](N5CC6(CC6)C5)C4)nc4c(OCC(F)(F)F)c(-c5c(C)ccc6[nH]ncc56)c(C5CC5)cc34)CC2)C1 [Compound 93] | < 300 | – | – | > 90
